Test results reported in publication PMC4537050, “A long pentraxin-3-derived pentapeptide for the therapy of FGF8b-driven steroid hormone-regulated cancers” (Oncotarget, 2015).

Columns and labels:
FGF9 = FGF9 (Homo sapiens, UniProt P31371); assay: SPR analysis of FGF/ARPCA interaction, FGF9; type: binding; conditions: immobilized FGF9
FGF23 = target: T1, FGF23 (Homo sapiens, UniProt Q9GZV9); assay: SPR analysis of ARPCA on immobilized FGF23; type: binding; conditions: data not shown
T1 sequence (Q9GZV9 25-251): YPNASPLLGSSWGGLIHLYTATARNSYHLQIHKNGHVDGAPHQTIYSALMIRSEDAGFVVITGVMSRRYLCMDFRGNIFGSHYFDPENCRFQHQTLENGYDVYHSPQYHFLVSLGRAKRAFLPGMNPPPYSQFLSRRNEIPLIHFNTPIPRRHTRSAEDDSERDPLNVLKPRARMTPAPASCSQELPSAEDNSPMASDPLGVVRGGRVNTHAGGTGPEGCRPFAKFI

FGF4 = target: T2, FGF4 (Homo sapiens, UniProt P08620); assay: SPR analysis of FGF/ARPCA interaction, FGF4; type: binding; conditions: immobilized FGF4
T2 sequence (P08620 31-206): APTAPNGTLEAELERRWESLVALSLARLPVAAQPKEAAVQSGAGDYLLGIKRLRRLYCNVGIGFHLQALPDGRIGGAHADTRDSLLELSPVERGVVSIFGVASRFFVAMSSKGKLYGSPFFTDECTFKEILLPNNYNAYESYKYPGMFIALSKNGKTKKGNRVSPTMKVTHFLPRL

TRAMP-C2 alginate plugs = assay: Murine s.c. alginate implant assay, TRAMP-C2 cells; type: in vivo, C57BL/6 male mice; conditions: i.p. at 100 mg/kg every other day
Method: (§1) Eightweek-old athymic Nu/Nu or C57BL/6 male mice were injected s.c. with 450 μl of 3% (w/v) sodium alginate solution (alginic acid dissolved in LPS-free PBS) containing 5×10^6 S115 or 8×10^6 TRAMP-C2 cells, respectively. Mice were treated i.p. with ARPCA or ARPVA (100 mg/kg) on day 7, 9, 11 and 13 after implant. On day 14, alginate gels were harvested, weighted, embedded in OCT-compound and immediately frozen to be processed for histological analysis. For immunofluorescence stainings, sections (5 μm thick) were obtained with a cryostat microtome, air dried and fixed with acetone (for 5 min at 4°C). After blocking with 1% BSA (Bovine Serum Albumin) in PBS for 10 minutes, sections were incubated with primary antibodies, rabbit anti-FGFR1 (Santa Cruz Biotechnology), rabbit anti-phospho FGFR1 (Santa Cruz Biotechnology), Ki67 (Dako, Milano, Italy, EU) or CD31 (BD Biosciences Pharmingen, San Diego, CA, USA). After washing with PBS containing 0.05% Tween 20, sections were incubated with the appropriate Alexa Fluor 488 or Alexa Fluor 594-conjugated secondary antibody (Invitrogen). After mounting in a drop of anti-bleaching mounting medium containing DAPI (Vectashield, Vector Laboratories, Burlingame, CA, USA), sections were examined under a Zeiss Fluorescence Axiovert 200M microscope (Carl Zeiss).

[1] = mouse, in vivo, ip, 100 mg/kg
Method: (§2) Eight week-old C57BL/6 mice were treated i.p. with 100 mg/kg of ARPCA every other day for two weeks. During this period, animals were weighted for body weight variation analysis. At the end of treatment, whole blood and serum were harvested and analysed for blood components, biochemical serum parameters and circulating levels of FGF23. The serum levels of FGF23 were assessed by ELISA (Uscn Life Science Inc., Wuhan, PRC, Asia) according to manufacturer's instructions. Untreated mice were used as reference/control.

[2] = In vivo ARPCA toxicity studies
Method: as §2

[3] = tested on: S115 cells grafted onto the chick embryo CAM; assay: CAM assay with DHT-treated S115 cell grafts; type: in vivo; conditions: 2.5 × 10^4 cells/embryo; ARPCA 80 or 140 pmoles/embryo, ARPVA 140 pmoles/embryo; day 14
Method: Alginate plugs containing vehicle, FGF8b (4.5 pmoles/embryo), VEGF-A (4.5 pmoles/embryo) or S115 cells (2.5×10^4/embryo) in the absence or presence of ARPCA (80 or 140 pmoles/embryo) or ARPVA (140 pmoles/embryo) were placed on the CAM of fertilized white leghorn chicken eggs at day 11 of incubation. At day 14, newly formed blood microvessels converging toward the implant were counted by two observers in a double-blind fashion at 5x magnification under a stereomicroscope (STEMI-SR, x2/0.12; Zeiss) as described.

S115 tumor grafts = assay: Murine s.c. alginate implant assay, S115 cells; type: in vivo, athymic Nu/Nu male mice; conditions: i.p. 100 mg/kg every other day, plugs harvested day 14, compared to ARPVA-treated animals
Method: as §1

FGF6 = target: T3, FGF6 (Homo sapiens, UniProt P10767); assay: SPR analysis of FGF/ARPCA interaction, FGF6; type: binding; conditions: immobilized FGF6
T3 sequence (P10767 38-208): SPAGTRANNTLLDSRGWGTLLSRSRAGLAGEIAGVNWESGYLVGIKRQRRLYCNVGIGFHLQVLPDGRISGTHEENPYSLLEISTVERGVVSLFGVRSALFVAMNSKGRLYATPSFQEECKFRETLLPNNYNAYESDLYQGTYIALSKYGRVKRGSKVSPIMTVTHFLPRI

[4] = target: T4, HSPG/FGF8b/FGFR1 ternary complexes (Homo sapiens, UniProt P55075); assay: HSPG/FGF8b/FGFR1 mediated cell-cell adhesion assay; type: cell-based; conditions: 30 ng/ml FGF8b, increasing peptide concentrations
T4 construct: purchased PeproTech; host or cells: FGF8b was added to A745-CHO-flg-1A-luc cells (FGFR1 IIIc transfected) on a glutaraldehyde-fixed CHO-K1 monolayer (endogenous HSPGs)
T4 sequence (P55075 23-215 isoform P55075-3 limits assumed): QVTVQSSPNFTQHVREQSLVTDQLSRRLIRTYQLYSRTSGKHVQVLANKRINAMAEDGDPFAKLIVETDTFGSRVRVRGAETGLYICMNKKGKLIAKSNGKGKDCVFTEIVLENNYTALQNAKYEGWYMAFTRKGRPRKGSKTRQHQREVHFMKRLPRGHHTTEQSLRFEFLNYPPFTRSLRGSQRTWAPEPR
Method: This assay was performed as described with minor modifications. Briefly, wild-type CHO-K1 cells were seeded in 24-well plates at 150000 cells/cm^2. After 24 h, cell monolayers were washed with PBS and incubated with 3% glutaraldehyde in PBS for 2 h at 4°C. Fixation was stopped with 0.1 M glycine and cells were washed extensively with PBS. Then, A745-CHO-flg-1A-luc cells (50000 cells/cm^2) were added to CHO-K1 monolayers in serum-free medium plus 10 mM EDTA with or without 30 ng/ml FGF8b in the absence or presence of increasing concentrations of the ARPCA or ARPVA peptides. After 2 h of incubation at 37°C, unattached cells were removed by washing twice with PBS, and A745-CHO-flg-1A-luc bound to the CHO-K1 monolayer were solubilized and luciferase activity was quantified. All experiments were performed in triplicate.

FGF10 = target: T5, FGF10 (Homo sapiens, UniProt O15520); assay: SPR analysis of FGF/ARPCA interaction, FGF10; type: binding; conditions: immobilized FGF10
T5 sequence (O15520 38-208): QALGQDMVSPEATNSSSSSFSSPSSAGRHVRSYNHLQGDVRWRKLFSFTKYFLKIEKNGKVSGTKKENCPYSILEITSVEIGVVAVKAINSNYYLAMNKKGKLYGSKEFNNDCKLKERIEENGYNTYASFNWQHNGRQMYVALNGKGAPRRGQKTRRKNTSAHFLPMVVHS

Ac-ARPCA-NH2 [ARPCA, Ac-ARPCA-NH2]
Kd, FGF9 (FGF9): n.b.
interaction with immobilized FGF23 (FGF23): did not show any interaction
Kd, FGF4 (FGF4): n.b.
CD31-positive tumor vascularization in TRAMP-C2 alginate plugs (TRAMP-C2 alginate plugs): decrease
FGFR1 activation in TRAMP-C2 alginate plugs (TRAMP-C2 alginate plugs): impaired FGFR1 activation
tumor cell proliferation rate (Ki67 immunostaining) in TRAMP-C2 alginate plugs (TRAMP-C2 alginate plugs): decrease
systemic toxic effect in treated animals [1]: absence of any systemic toxic effect
body weight ([2]; i.p. 100 mg/kg every other day for two weeks): did not affect
hematologic parameters, blood serum components and FGF23 serum levels (in words) ([2]; long-term administration, i.p. 100 mg/kg every other day): did not affect
neovascular response elicited by DHT-pretreated S115 cells on the CAM [3]: abolished
CD31+ neovascularization in S115 tumor grafts (S115 tumor grafts): efficiently inhibited
FGFR1 phosphorylation in S115 tumor grafts (S115 tumor grafts): efficiently inhibited
Ki67+ proliferation index in S115 tumor grafts (S115 tumor grafts): efficiently inhibited
Kd, FGF6 (FGF6): n.b.
inhibitory activity on FGF8b-mediated cell-cell adhesion (in words) [4]: dose-dependent inhibitory activity
Kd, FGF10 (FGF10): n.b.
